Laboratory results reported in patent US20140309229A1, “METHODS FOR SELECTING AND TREATING CANCER IN PATIENTS WITH IGF-1R/IR INHIBITORS” (priority 2011, published 2014).
pIC50: −log10 of the molar value.

Legend:
Test in all cases: MTS proliferation assay
Format in all cases: cell-based, human
[1] = system: CACO-2
Method: (§1) Cell lines and in vitro cytotoxicity assay. Cells were maintained at 37° C. under standard cell culture conditions. Cells were plated at an optimized density for each cell line per well in 96-well microtiter FALCON® plates, incubated overnight, and then exposed to a serial dilution of drug. […] The results were expressed as an IC50, which is the drug concentration required to inhibit cell proliferation to 50% of that of untreated control cells. The mean IC50 and standard deviation (SD) from multiple tests for each cell line were calculated.
(§2) In vitro Cellular Proliferation Assays.

[2] = system: CCD18CO
Method: as §1, §2

[3] = system: COLO741
Method: as §1, §2

[4] = system: CW-2
Method: as §1, §2

[5] = system: CaR-1
Method: as §1, §2

[6] = system: DLD-1; conditions: for pIC50: Homo sapiens
Method: as §1, §2

[7] = system: GP2D
Method: as §1, §2

[8] = system: GP5D
Method: as §1, §2

[9] = system: HCC2998
Method: as §1, §2

[10] = system: HCT-15
Method: as §1, §2

[11] = system: HCT116SS42
Method: as §1, §2

[12] = system: HT-29
Method: as §1, §2

[13] = system: HT55
Method: as §1, §2

[14] = system: KM12C
Method: as §1, §2

[15] = system: LS-411N
Method: as §1, §2

[16] = system: LS-513
Method: as §1, §2

[17] = system: LoVo
Method: as §1, §2

[18] = system: NCI-H508
Method: as §1, §2

[19] = system: NCI-H747
Method: as §1, §2

[20] = system: OUMS-23
Method: as §1, §2

[21] = system: RKO
Method: as §1, §2

[22] = system: SK-CO-1; conditions: for pIC50: Homo sapiens
Method: as §1, §2

[23] = system: SNU-61
Method: as §1, §2

[24] = system: SNU175
Method: as §1, §2

[25] = system: SW1417
Method: as §1, §2

[26] = system: SW480
Method: as §1, §2

[27] = system: SW948
Method: as §1, §2

[28] = system: T84
Method: as §1, §2

[29] = system: WIDR
Method: as §1, §2

[30] = preliminary panel of 45 CRC cell lines

C[C@@]1(C(=O)Nc2ccc(F)nc2)CCCN1c1nc(Nc2cc(C3CC3)n[nH]2)c2cccn2n1 [BMS-754807, (2S)-1-(4-((5-cyclopropyl-1H-pyrazol-3-yl)amino)pyrrolo[2,1-f][1,2,4]triazin-2-yl)-N-(6-fluoro-3-pyridinyl)-2-methyl-2-pyrrolidinecarboxamide] was tested, and the “Sensitivity Classes” value ([1]; CACO-2) was “R (“R” refers Resistant)”, the “Sensitivity to BMS-754807” value ([1]; CACO-2, preliminary panel of 45 CRC cell lines) was “Resistant (resistant cell lines had IC50 values of >50 nmol/L)” and the pIC50 ([1]; Homo sapiens, Caco-2, 72 h) was 5.26. The “Sensitivity Classes” value ([2]; CCD18CO) was “R (“R” refers Resistant)”, the “Sensitivity to BMS-754807” value ([2]; CCD18CO, preliminary panel of 45 CRC cell lines) was “Resistant (resistant cell lines had IC50 values of >50 nmol/L)” and the pIC50 ([2]; Homo sapiens, CCD-18Co, 72 h) was 5.59. The “Sensitivity Classes” value ([3]; COLO741) was “R (“R” refers Resistant)”, the pIC50 ([3]; Homo sapiens, COLO-741, 72 h) was 5.87 and the “Sensitivity Classes” value ([4]; CW-2) was “R (“R” refers Resistant)”. For the same molecule, the pIC50 ([4]; Homo sapiens, CW-2, 72 h) was 6.23, the “Sensitivity Classes” value ([5]; CaR-1) was “R (“R” refers Resistant)” and the pIC50 ([5]; Homo sapiens, CaR-1, 72 h) was 6.43. The “Sensitivity Classes” value ([6]; DLD-1) was “R (“R” refers Resistant)”, the “Sensitivity to BMS-754807” value ([6]; DLD-1, preliminary panel of 45 CRC cell lines) was “Resistant (resistant cell lines had IC50 values of >50 nmol/L)” and the pIC50 ([6]; DLD-1) was 6.18. The pIC50 ([6]; DLD-1, 72 h) was 6.18, the “Sensitivity Classes” value ([7]; GP2D) was “R (“R” refers Resistant)” and the pIC50 ([7]; Homo sapiens, GP2d, 72 h) was 6.58. For the same molecule, the “Sensitivity Classes” value ([8]; GP5D) was “R (“R” refers Resistant)”, the pIC50 ([8]; Homo sapiens, GP5d, 72 h) was 6.60 and the “Sensitivity Classes” value ([9]; HCC2998) was “R (“R” refers Resistant)”. The pIC50 ([9]; Homo sapiens, HCC 2998, 72 h) was 6.42, the “Sensitivity to BMS-754807” value ([10]; HCT15, preliminary panel of 45 CRC cell lines) was “Resistant (resistant cell lines had IC50 values of >50 nmol/L)” and the “Sensitivity Classes” value ([10]; HCT-15) was “R (“R” refers Resistant)”. The pIC50 ([10]; Homo sapiens, HCT-15, 72 h) was 6.12, the “Sensitivity Classes” value ([11]; HCT116SS42) was “R (“R” refers Resistant)” and the “Sensitivity to BMS-754807” value ([11]; HCT116SS42, preliminary panel of 45 CRC cell lines) was “Intermediate (remaining 30 cell lines classified as Intermediate or resistant)”. For the same molecule, the pIC50 ([11]; Homo sapiens, 72 h) was 6.37, the “Sensitivity to BMS-754807” value ([12]; HT29, preliminary panel of 45 CRC cell lines) was “Intermediate (remaining 30 cell lines classified as Intermediate or resistant)” and the “Sensitivity Classes” value ([12]; HT-29) was “R (“R” refers Resistant)”. The pIC50 ([12]; Homo sapiens, HT-29, 72 h) was 6.35, the “Sensitivity Classes” value ([13]; HT55) was “S (“S” refers Sensitive)” and the pIC50 ([13]; Homo sapiens, HT55, 72 h) was 8.52. The “Sensitivity Classes” value [14] was “S (“S” refers Sensitive)”, the pIC50 ([14]; Homo sapiens, 72 h) was 7.48 and the “Sensitivity to BMS-754807” value [14, 30] was “Sensitive (a sensitive cell line was classified as one with an IC50 of ≦50 nmol/L)”. The pIC50 ([15]; Homo sapiens, LS-411N, 72 h) was 7.00, the “Sensitivity to BMS-754807” value ([15]; LS411N, preliminary panel of 45 CRC cell lines) was “Intermediate (remaining 30 cell lines classified as Intermediate or resistant)” and the “Sensitivity Classes” value ([15]; LS-411N) was “R (“R” refers Resistant)”. For the same molecule, the pIC50 ([16]; Homo sapiens, LS-513, 72 h) was 7.82, the “Sensitivity to BMS-754807” value ([16]; LS513, preliminary panel of 45 CRC cell lines) was “Sensitive (a sensitive cell line was classified as one with an IC50 of ≦50 nmol/L)” and the “Sensitivity Classes” value ([16]; LS-513) was “S (“S” refers Sensitive)”. The pIC50 ([17]; Homo sapiens, LoVo, 72 h) was 5.41, the “Sensitivity to BMS-754807” value ([17]; LOVO, preliminary panel of 45 CRC cell lines) was “Resistant (resistant cell lines had IC50 values of >50 nmol/L)” and the “Sensitivity Classes” value ([17]; LoVo) was “R (“R” refers Resistant)”. For the same molecule, the “Sensitivity to BMS-754807” value ([18]; H508, preliminary panel of 45 CRC cell lines) was “Sensitive (a sensitive cell line was classified as one with an IC50 of ≦50 nmol/L)”, the pIC50 ([18]; Homo sapiens, NCI-H508, 72 h) was 7.96 and the “Sensitivity Classes” value ([18]; NCI-H508) was “S (“S” refers Sensitive)”. For the same molecule, the pIC50 ([19]; Homo sapiens, NCI-H747, 72 h) was 5.94, the “Sensitivity Classes” value ([19]; NCI-H747) was “R (“R” refers Resistant)” and the “Sensitivity to BMS-754807” value ([19]; NCI-H747, preliminary panel of 45 CRC cell lines) was “Resistant (resistant cell lines had IC50 values of >50 nmol/L)”. For the same molecule, the pIC50 ([20]; Homo sapiens, OUMS-23, 72 h) was 5.65, the “Sensitivity Classes” value ([20]; OUMS-23) was “R (“R” refers Resistant)” and the “Sensitivity Classes” value [21] was “R (“R” refers Resistant)”. The pIC50 ([21]; Homo sapiens, 72 h) was 6.07, the “Sensitivity to BMS-754807” value [21, 30] was “Resistant (resistant cell lines had IC50 values of >50 nmol/L)” and the pIC50 ([22]; SK-CO-1) was 8.52. The pIC50 ([22]; SK-CO-1, 72 h) was 8.52, the “Sensitivity Classes” value ([22]; SK-CO-1) was “S (“S” refers Sensitive)” and the “Sensitivity to BMS-754807” value ([22]; SK-CO-1, preliminary panel of 45 CRC cell lines) was “Sensitive (a sensitive cell line was classified as one with an IC50 of ≦50 nmol/L)”. The pIC50 ([23]; Homo sapiens, 72 h) was 7.46, the “Sensitivity Classes” value ([23]; SNU-61) was “S (“S” refers Sensitive)” and the pIC50 ([24]; Homo sapiens, 72 h) was 8.52. The “Sensitivity Classes” value ([24]; SNU175) was “S (“S” refers Sensitive)”, the pIC50 ([25]; Homo sapiens, SW1417, 72 h) was 6.97 and the “Sensitivity Classes” value ([25]; SW1417) was “R (“R” refers Resistant)”. The “Sensitivity to BMS-754807” value ([25]; SW1417, preliminary panel of 45 CRC cell lines) was “Intermediate (remaining 30 cell lines classified as Intermediate or resistant)”, the pIC50 ([26]; Homo sapiens, SW480, 72 h) was 5.31 and the “Sensitivity Classes” value ([26]; SW480) was “R (“R” refers Resistant)”. For the same molecule, the “Sensitivity to BMS-754807” value ([26]; SW480, preliminary panel of 45 CRC cell lines) was “Resistant (resistant cell lines had IC50 values of >50 nmol/L)”, the pIC50 ([27]; Homo sapiens, SW948, 72 h) was 7.74 and the “Sensitivity Classes” value ([27]; SW948) was “S (“S” refers Sensitive)”. The “Sensitivity to BMS-754807” value ([27]; SW948, preliminary panel of 45 CRC cell lines) was “Sensitive (a sensitive cell line was classified as one with an IC50 of ≦50 nmol/L)”, the pIC50 ([28]; Homo sapiens, T84, 72 h) was 5.28 and the “Sensitivity Classes” value ([28]; T84) was “R (“R” refers Resistant)”. For the same molecule, the “Sensitivity to BMS-754807” value ([28]; T84, preliminary panel of 45 CRC cell lines) was “Resistant (resistant cell lines had IC50 values of >50 nmol/L)”, the pIC50 ([29]; Homo sapiens, WiDr, 72 h) was 6.71 and the “Sensitivity Classes” value ([29]; WIDR) was “R (“R” refers Resistant)”. For the same molecule, the “Sensitivity to BMS-754807” value ([29]; WIDR, preliminary panel of 45 CRC cell lines) was “Intermediate (remaining 30 cell lines classified as Intermediate or resistant)”.
